By EC50 is commonly meant the concentration giving half of the maximal effect. What is called CC50 is the concentration giving 50% cytotoxicity.

Series [1] in a line: Cytotoxicity against human TZM-bl cells at 20 uM. Type of series: cell-based.
Series [2] has as its system Human immunodeficiency virus 1. Nature of the series: Antiviral activity against HIV1 NL4-3 infected in human MT4 cells assessed as reduction in viral replication measured on day 3 post infection by Nano-Glo luciferase reporter gene assay. In kind it is functional, organism-based. The conditions noted are these: Human immunodeficiency virus 1, NL4-3, MT4, 72 h.
Series [3] has as its system Human immunodeficiency virus 1. Put plainly: Antiviral activity against pseudotype HIV1 TRO11 harboring HIV1 subtype B Env assessed as inhibition of viral infection in human TZM-bl cells measured 2 days post infection by luciferase reporter gene assay. In kind it is functional, organism-based. The note with it: Human immunodeficiency virus 1, TRO11, TZM-bl, 48 h. On the technique in general: Reporter assays use an easily measured gene product as a stand-in for the process of interest.

In series [4] the test system is Human immunodeficiency virus 1. Nature of the series: Effect on binding of HIV1 3B gp120 to CD4-IgG2 at 1 to 10 ug/ml by ELISA. A general note: In an ELISA, binding on a coated surface is turned into a signal by an enzyme label.
In series [5] the test system is Human immunodeficiency virus 1. Put plainly: Antiviral activity against pseudotype HIV1 X1632 harboring HIV1 subtype G Env assessed as inhibition of viral infection in human TZM-bl cells measured 2 days post infection by luciferase reporter gene assay. Type of series: functional, organism-based. The conditions noted are these: Human immunodeficiency virus 1, X1632, TZM-bl, 48 h.

Series [6] has as its system Human immunodeficiency virus 1. Put plainly: Antiviral activity against pseudotype HIV1 CE0217 harboring HIV1 subtype C Env assessed as inhibition of viral infection in human TZM-bl cells measured 2 days post infection by luciferase reporter gene assay. In kind it is functional, organism-based. The note with it: Human immunodeficiency virus 1, CE0217, TZM-bl, 48 h.
In series [7] the test system is COS. Put plainly: Inhibition of HIV1 NL4-3 Env-induced cell-cell fusion between viral envelope expressing African green monkey COS cells to CXCR4 receptor expressing human TZM-bl cells at 0.01 to 10 uM after overnight incubation by Bright-Glo luciferase assay. Type of series: cell-based. The note with it: Human immunodeficiency virus 1.
In series [8] the test system is Human immunodeficiency virus 1. Put plainly: Antiviral activity against pseudotype HIV1 CH119 harboring HIV1 subtype CRF07_BC Env assessed as inhibition of viral infection in human TZM-bl cells measured 2 days post infection by luciferase reporter gene assay. In kind it is functional, organism-based. The conditions noted are these: Human immunodeficiency virus 1, CH119, TZM-bl, 48 h.

Series [9] concerns Human immunodeficiency virus 1. Put plainly: Antiviral activity against pseudotype HIV1 CE1176 harboring HIV1 subtype C Env assessed as inhibition of viral infection in human TZM-bl cells measured 2 days post infection by luciferase reporter gene assay. The note with it: Human immunodeficiency virus 1, CE1176, TZM-bl, 48 h. Type of series: functional, organism-based.
Series [10] relates to Human immunodeficiency virus 1. Put plainly: Antiviral activity against pseudotype HIV1 CNE55 harboring HIV1 subtype CRF01_AE Env assessed as inhibition of viral infection in human TZM-bl cells measured 2 days post infection by luciferase reporter gene assay. In kind it is functional, organism-based. The note with it: Human immunodeficiency virus 1, CNE55, TZM-bl, 48 h.
Series [11] has as its system Human immunodeficiency virus 1. Put plainly: Antiviral activity against pseudotype HIV1 BJOX2000 harboring HIV1 subtype CRF07_BC Env assessed as inhibition of viral infection in human TZM-bl cells measured 2 days post infection by luciferase reporter gene assay. In kind it is functional, organism-based. The note with it: Human immunodeficiency virus 1, BJOX2000, TZM-bl, 48 h.

Series [12] relates to Human immunodeficiency virus 1. Put plainly: Antiviral activity against pseudotype HIV1 25710 harboring HIV1 subtype C Env assessed as inhibition of viral infection in human TZM-bl cells measured 2 days post infection by luciferase reporter gene assay. Type of series: functional, organism-based. The conditions noted are these: Human immunodeficiency virus 1, 25710, TZM-bl, 48 h.

Series [13] in a line: Cytotoxicity against human MT4 cells assessed as reduction in cell viability after 3 days by CellTiter-Glo luminescent assay. In kind it is cell-based. In general terms: ATP-based viability assays read luminescence as a measure of living cells.

SMILES strings stand for the structures. The source made the active and inactive calls. No cut-off for these calls is given here.

With `O=C(Cc1ccc(OC(F)(F)F)cc1)NCCCCN1CCCC2=C[C@H]3C[C@H](CN4CCCC[C@H]34)[C@@H]21`, the Activity result in series [1] was “Non-toxic”. Besides, the EC50 came to 750 nM in series [2]; 1600 nM in series [3]; 2500 nM in series [5]; 1400 nM in series [6]; 900 nM in [8]; 2200 nM in series [9]. Also, the EC50 in [10] was 4300 nM; in series [11] it was 2800 nM; in series [12], 2100 nM. For the same molecule, the result in [4] was inactive. In addition, in series [7], the inhibition entry was “Active”. Also, the CC50 at 72 h in series [13] was found to be 23000 nM.

The values above are taken from ChEMBL document CHEMBL3804815, “Aloperine and Its Derivatives as a New Class of HIV-1 Entry Inhibitors” (ACS Med Chem Lett, 2016).
